Experimental data: US8288438B2, “Methods for avoiding edema in the treatment or prevention of PPARγ-responsive diseases, including cancer” (Metabolex, Inc., priority 2005, dated 2012)
Where two headings read alike, the source gives them in different places.

Columns and labels:
[1] = tested on: C57BL/6j ob/ob Mice; assay: glucose lowering activity of halofenate analogs in C57BL/6J ob/ob mice (Example 14); type: in vivo
Protocol: Male, 8-9 weeks old, C57BL/6J ob/ob mice were purchased from The Jackson Laboratory (Bar Harbor, Me., USA). Animals were housed (4-5 mice/cage) under standard laboratory conditions at 22±3° C. temperature and 50±20% relative humidity, and were maintained on a diet of Purina rodent chow and water ad libitum. Prior to treatment, blood was collected from the tail vein of each animal. Mice that had non-fasting plasma glucose levels between 250 and 500 mg/dl were used. Each treatment group consisted of 8-10 mice that were distributed so that the mean glucose levels were equivalent in each group at the start of the study. Mice were dosed orally by gavage once a day for 1-3 days with either vehicle, (−) halofenic acid, (±) analog 14, 29, 33, 34, 35, 36, 37, or 38 at 125 mg/kg or (−) analog 29, 36, 37 or 38 at 150 mg/kg. compounds were delivered in a liquid formulation containing 5% (v/v) dimethyl sulfoxide (DMSO), 1% (v/v) tween 80 and 0.9% (w/v) methylcellulose. The gavage volume was 10 ml/kg. Blood samples were taken at 6 hours after the each dose and analyzed for plasma glucose. Food intake and body weight were measured daily. Plasma glucose concentrations were determined calorimetrically using glucose oxidase method (Sigma Chemical Co, St. Louis, Mo., USA). Significant difference between groups (comparing drug-treated to vehicle-treated) was evaluated using the Student unpaired t-test.

[2] = molecular target: T1, PPARγ (Homo sapiens, UniProt P37231); assay: partial agonism on PPARγ (Example 8, FIG. 6); type: cell-based
T1 sequence (P37231 1-505): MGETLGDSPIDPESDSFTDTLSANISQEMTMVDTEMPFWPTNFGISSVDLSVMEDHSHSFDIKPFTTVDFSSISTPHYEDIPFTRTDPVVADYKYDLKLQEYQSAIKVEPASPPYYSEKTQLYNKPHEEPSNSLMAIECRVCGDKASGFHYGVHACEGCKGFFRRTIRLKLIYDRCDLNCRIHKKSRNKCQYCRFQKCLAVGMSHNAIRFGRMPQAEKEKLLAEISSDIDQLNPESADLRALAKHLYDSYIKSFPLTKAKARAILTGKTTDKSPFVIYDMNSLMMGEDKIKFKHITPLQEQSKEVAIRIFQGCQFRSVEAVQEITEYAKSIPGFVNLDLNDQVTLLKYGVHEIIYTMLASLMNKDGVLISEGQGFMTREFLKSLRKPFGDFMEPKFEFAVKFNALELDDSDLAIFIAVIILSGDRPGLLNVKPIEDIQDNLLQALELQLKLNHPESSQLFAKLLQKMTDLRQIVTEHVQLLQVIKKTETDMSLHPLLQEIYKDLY
Text: Expression of reporter genes in response to compounds identified as binders of PPARγ may also be used to measure PPARγ activation. PPARγ may be co-transfected with reporter genes known in the art such as, for example, luciferase, β-galactosidase, alkaline phosphatase, fluorescent green protein, or chloramphenicol acetyltransferase. The transfected cells can be exposed to appropriate concentrations of candidate compounds with rosiglitazone as a positive control. Reporter gene expression will be induced by compounds that bind and activate PPARγ. Thus, compounds that induce reporter gene expression can be identified as activators of PPARγ (Forman, et al. (1997) PNAS 94:4312). Preferably the compounds induce reporter gene expression at levels at least 5-10 fold, more preferably 10-100 fold, more preferably 100-500 fold, more preferably 500-1000 fold, most preferably greater than 1000 fold greater than the negative control.
Example 8 illustrates the partial agonism of the (−) isomer of either halofenic acid or halofenate on PPARγ (see, FIG. 6).

[3] = molecular target: cytochrome P450 2C9 (Homo sapiens, UniProt P11712); conditions: cited from earlier work
[4] = tested on: type 2 diabetics with inadequate control on insulin; assay: randomized, double-blind, placebo-controlled, multi-centre studies on type 2 diabetics with inadequate control on insulin; type: in vivo, human
Text: Example 9 presents the results of two randomized, double-blind, placebo-controlled, multi-centre studies on type 2 diabetics with inadequate control on insulin. […] Both studies were about 4 months long, with a stabilization/run in period for 2 to 4 weeks and a 3 month treatment period. Endpoints included fasting plasma glucose (FPG), HbA1c, weight, and the incidence of edema.

[5] = tested on: human subjects also receiving glyburide; assay: 14 days of treatment in human subjects also receiving glyburide (FIG. 19, 20); type: in vivo; conditions: after 14 days of treatment
Text: The data for pioglitazone (Actos) is taken from Goldberg R B et al., Diabetes Care 28(7):1547-54 (2005), which is incorporated herein by reference.

[6] = tested on: monkeys; assay: separate animal studies: heart weight or fluid accumulation; type: in vivo; conditions: therapeutically relevant doses, data not shown
[7] = tested on: rats; assay: as above; type: in vivo; conditions: therapeutically relevant doses, data not shown
[8] = 125 mg/kg oral gavage once a day
[9] = (−) analogs, single dose 150 mg/kg

Chain of cytochrome P450 2C9 (P11712 whole entry): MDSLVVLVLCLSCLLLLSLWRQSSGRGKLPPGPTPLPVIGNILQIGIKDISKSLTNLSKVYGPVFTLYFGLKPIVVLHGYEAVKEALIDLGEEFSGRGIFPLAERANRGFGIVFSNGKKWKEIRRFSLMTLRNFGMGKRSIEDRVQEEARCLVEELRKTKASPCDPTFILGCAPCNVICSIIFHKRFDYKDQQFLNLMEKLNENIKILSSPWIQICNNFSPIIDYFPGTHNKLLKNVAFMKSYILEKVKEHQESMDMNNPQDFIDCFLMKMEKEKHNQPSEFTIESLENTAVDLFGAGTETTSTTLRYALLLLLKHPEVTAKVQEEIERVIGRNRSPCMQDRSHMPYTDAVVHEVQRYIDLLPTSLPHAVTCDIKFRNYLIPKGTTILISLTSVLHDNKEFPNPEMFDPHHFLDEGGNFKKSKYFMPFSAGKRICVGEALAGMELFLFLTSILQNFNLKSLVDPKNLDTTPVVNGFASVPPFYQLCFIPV

## O=C(NCCOC(=O)C(Oc1cccc(C(F)(F)F)c1)c1ccc(Cl)cc1)c1ccccc1 (racemic) [(±)Analog 36]
[1]; [8]
  plasma glucose concentrations vs vehicle (in words): significantly lowered plasma glucose concentrations at 30 and 54 hours

## NC(=O)COC(=O)C(Oc1cccc(C(F)(F)F)c1)c1ccc(Cl)cc1 (racemic) [(±)Analog 37]
[1]; [8]
  plasma glucose concentrations vs vehicle (in words): significantly lowered plasma glucose concentrations at 54 hours

## CN(C)C(=O)COC(=O)C(Oc1cccc(C(F)(F)F)c1)c1ccc(Cl)cc1 (racemic) [(±)Analog 38]
[1]; [8]
  plasma glucose concentrations vs vehicle (in words): significantly lowered plasma glucose concentrations at 6, 30 and 54 hours

## O=C(O)C(Oc1ccc(Cl)cc1-n1nc2ccccc2n1)c1ccccc1 (racemic) [Formula V]
[2]
  kind of PPARγ agonism: partial PPARγ agonists

## O=C(O)C(Oc1cccc(C(F)(F)F)c1)c1ccc(Cl)cc1 (racemic) [racemic halofenic acid, 4-Chlorophenyl-(3-trifluoromethylphenoxy)-acetic Acid, reference compound]
[2]
  kind of PPARγ agonism: partial PPARγ agonists
[3]
  inhibition of cytochrome P450 2C9: found to inhibit

## O=C(O)C(Oc1cccc(C(F)(F)F)c1)c1ccc(Cl)cc1 (single isomer, unassigned; (+)) [(+) enantiomer of halofenic acid, (+) 4-chlorophenyl-(3-trifluoromethylphenoxy)-acetic acid]
[3]
  inhibition of cytochrome P450 2C9: quite potent

## CC(=O)NCCOC(=O)C(Oc1cccc(C(F)(F)F)c1)c1ccc(Cl)cc1 (single isomer, unassigned; (-)) [(−) halofenate, (−) 2-acetamidoethyl 4-chlorophenyl-(3-trifluoromethylphenoxy)acetate]
[2]
  kind of PPARγ agonism: partial agonist
[2]; FIG. 6
  antagonizing the agonist activity of rosiglitazone: significantly antagonizing
[4]; 600 mg, analysis removing sites 60 and 70, FIG. 13
  plasma glucose levels as judged by HbA1c levels compared to placebo group: lowered
[4]; 600 mg, sites 60 and 70 removed, FIG. 14, even greater extent than the 400 mg dose
  fasting plasma glucose levels compared to placebo group: lowered
[4]; 200- and 400 mg, sites 60 and 70 removed, FIG. 15
  plasma glucose levels as judged by HbA1c levels compared to placebo group: lowered
[4]; 200- and 400 mg, sites 60 and 70 removed, FIG. 16
  fasting plasma glucose levels compared to placebo group: lowered
[4]; Phase II clinical trial
  anti-edema activity: had anti-edema activity of its own
  side effects: hepatoxicity, edema, heart failure, increased weight gain: largely free
[4]; data not shown
  adverse effects on selected parameters of upper GI tract, liver, blood, kidney: not associated with an excess of adverse effects
  effect on the HDL/cholesterol profile: neutral effect
  serum triglycerides: lowered serum triglycerides substantially
[4]; dose of 600 mg, FIG. 18
  weight gain compared to placebo group: did not induce weight gain
[4]; dose range of 200- to 600 mg, both studies, FIG. 17
  incidence of edema formation compared to combined placebo groups: did not increase the incidence of edema formation
[4]; doses of 200- and 400 mg, FIG. 9
  edema formation compared to placebo groups: prevented edema formation
[4]; doses of 200- and 400 mg, FIG. 10
  weight gain compared to placebo group: did not induce weight gain
[4]; first study, 200 mg group
  Discontinued due to AE, patients (%): 3 (4.1%)
[4]; first study, 400 mg group
  Discontinued due to AE, patients (%): 3 (4.3%)
[4]; first study, doses of 200- and 400 mg, FIG. 7
  fasting plasma glucose levels compared to placebo group: lowered
[4]; first study, doses of 200- and 400 mg, FIG. 8
  plasma glucose levels as judged by HbA1c levels compared to placebo group: lowered
[4]; second study, 600 mg group
  Discontinued due to AE, patients (%): 0 (0%)
[4]; second study, 600 mg, FIG. 12, placebo group demonstrated a comparable response
  plasma glucose levels as judged by HbA1c levels, from baseline: lowered
[4]; second study, dose of 600 mg, FIG. 11
  fasting plasma glucose levels compared to placebo group: lowered
[5]; FIG. 19
  blood glucose levels in patients also receiving glyburide: substantially lower
[5]; FIG. 20
  hsCRP levels: lower
[6]
  increases in heart weight or fluid accumulation: did not cause increases
[7]
  increases in heart weight or fluid accumulation: did not cause increases

## CC(=O)NCCOC(=O)C(Oc1cccc(C(F)(F)F)c1)c1ccc(Br)cc1 (single isomer, unassigned; (-)) [(−)Analog 29]
[1]; [9]
  plasma glucose concentrations vs vehicle (in words): significantly reduced plasma glucose concentrations at 6 hours

## O=C(NCCOC(=O)C(Oc1cccc(C(F)(F)F)c1)c1ccc(Cl)cc1)c1ccccc1 (single isomer, unassigned; (-)) [(−)Analog 36]
[1]; [9]
  plasma glucose concentrations vs vehicle (in words): significantly reduced plasma glucose concentrations at 6 hours

## NC(=O)COC(=O)C(Oc1cccc(C(F)(F)F)c1)c1ccc(Cl)cc1 (single isomer, unassigned; (-)) [(−)Analog 37]
[1]; [9]
  plasma glucose concentrations vs vehicle (in words): significantly reduced plasma glucose concentrations at 6 hours

## CN(C)C(=O)COC(=O)C(Oc1cccc(C(F)(F)F)c1)c1ccc(Cl)cc1 (single isomer, unassigned; (-)) [(−)Analog 38]
[1]; [9]
  plasma glucose concentrations vs vehicle (in words): significantly reduced plasma glucose concentrations at 6 hours

## O=C(O)C(Oc1cccc(C(F)(F)F)c1)c1ccc(Cl)cc1 (single isomer, unassigned; (-)) [(−)halofenic acid, (−) (3-trifluoromethylphenoxy) (4-chlorophenyl)acetic acid]
[2]
  kind of PPARγ agonism: partial agonist
[2]; FIG. 6
  ability to induce PPARγ expression: a few fold
  antagonizing the agonist activity of rosiglitazone: significantly antagonizing
[1]; [8]
  plasma glucose concentrations vs vehicle (in words): significantly reduced plasma glucose concentrations at 6 hours
[3]; listed as (−) enantiomer of halofenic acid
  inhibition of cytochrome P450 2C9: about twenty-fold less active
